Experimental findings from US8426408B2, “Pyrimidine inhibitors of kinases” (AbbVie Inc., priority 2009, dated 2013) are described below.

Usually Ki stands for a measure of affinity in units of concentration, obtained from inhibition or displacement. As usually defined, the IC50 is the concentration that inhibits the measured activity by half.

SMILES strings stand for the structures.

In one assay the target is T1, Aurora B (Homo sapiens, UniProt Q96GD4).
T1 construct: Active Aurora B enzyme (recombinant residues 1-344)
T1 sequence (Q96GD4 whole entry, the tested form may be a part): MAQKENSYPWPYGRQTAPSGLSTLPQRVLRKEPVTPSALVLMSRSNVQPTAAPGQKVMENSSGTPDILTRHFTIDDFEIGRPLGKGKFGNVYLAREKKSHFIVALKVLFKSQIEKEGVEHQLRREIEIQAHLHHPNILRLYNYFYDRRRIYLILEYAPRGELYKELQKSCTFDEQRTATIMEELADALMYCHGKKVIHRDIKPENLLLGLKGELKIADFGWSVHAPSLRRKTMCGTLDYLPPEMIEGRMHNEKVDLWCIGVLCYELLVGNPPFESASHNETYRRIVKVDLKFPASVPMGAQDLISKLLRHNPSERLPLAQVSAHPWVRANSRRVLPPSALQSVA
T1 sequence (Q9NQS7 826-918 partner limits assumed): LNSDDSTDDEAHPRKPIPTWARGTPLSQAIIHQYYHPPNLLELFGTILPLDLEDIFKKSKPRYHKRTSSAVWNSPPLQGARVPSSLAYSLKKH
Description: Aurora B enzyme inhibition (time-resolved fluorescence, histone H3 peptide). The class given is biochemical. The conditions noted are these: 1 mM ATP. In outline:
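Recombinant Aurora B (residues 1-344) with GST-INCENP phosphorylated biotinylated histone H3 (1-21) peptide at 1 mM ATP in HEPES pH 7.4 with MgCl2, orthovanadate and Triton X-100 for 1 h. After EDTA stop, the phosphopeptide was detected by TR-FRET (Eu-cryptate anti-phospho-H3 / SA-APC, 665/615 nm ratio). IC50 from an exponential fit.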

The target in a further assay is T2, Aurora A (Homo sapiens, UniProt O14965).
T2 sequence (O14965 1-403): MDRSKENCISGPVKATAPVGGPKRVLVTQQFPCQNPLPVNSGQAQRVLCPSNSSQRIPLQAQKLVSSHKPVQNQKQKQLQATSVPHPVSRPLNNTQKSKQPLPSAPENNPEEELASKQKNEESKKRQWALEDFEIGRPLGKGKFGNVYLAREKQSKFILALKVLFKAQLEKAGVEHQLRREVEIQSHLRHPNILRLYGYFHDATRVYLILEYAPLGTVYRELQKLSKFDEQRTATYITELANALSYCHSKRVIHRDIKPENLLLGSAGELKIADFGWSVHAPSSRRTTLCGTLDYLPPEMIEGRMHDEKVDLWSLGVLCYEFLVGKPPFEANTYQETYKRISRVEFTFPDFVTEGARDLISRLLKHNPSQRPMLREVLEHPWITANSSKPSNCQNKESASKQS
Put plainly: Aurora A enzyme inhibition (time-resolved fluorescence, STK substrate-2). The class given is biochemical. The conditions noted are these: 1 mM ATP. An outline of the steps: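 Active enzyme incubated 1 h with biotinylated STK substrate-2, 1 mM ATP and inhibitor in Hepes pH 7.4 with MgCl2, orthovanadate and Triton X-100. EDTA stop; phosphopeptide detected by Eu-cryptate anti-phospho-STK/SA-XL665 TR-FRET (665/615 nm ratio); IC50 by exponential fit.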

Assay [1] addresses T3, KDR (Homo sapiens, UniProt P35968). Put plainly: KDR HTRF in vitro kinase assay. The class given is biochemical. The note with it: 1 mM ATP; read-out: KDR enzyme inhibition data (Ki). Set-up: purified enzyme (His6-KDR 789-1354, MW 63 kD); His6 (N). In outline:
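His6-KDR 789-1354 (7 ng/well) with 0.5 μM biotinylated peptide substrate and 1 mM ATP in HEPES pH 7.1, MgCl2/MnCl2, 60 min at room temperature. EDTA-quenched, detected by streptavidin-XL-665 plus Eu-kryptate anti-phosphotyrosine HTRF after 3 h; IC50 from 620/665 nm ratio.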
Target sequence in this assay (P35968 789-1354): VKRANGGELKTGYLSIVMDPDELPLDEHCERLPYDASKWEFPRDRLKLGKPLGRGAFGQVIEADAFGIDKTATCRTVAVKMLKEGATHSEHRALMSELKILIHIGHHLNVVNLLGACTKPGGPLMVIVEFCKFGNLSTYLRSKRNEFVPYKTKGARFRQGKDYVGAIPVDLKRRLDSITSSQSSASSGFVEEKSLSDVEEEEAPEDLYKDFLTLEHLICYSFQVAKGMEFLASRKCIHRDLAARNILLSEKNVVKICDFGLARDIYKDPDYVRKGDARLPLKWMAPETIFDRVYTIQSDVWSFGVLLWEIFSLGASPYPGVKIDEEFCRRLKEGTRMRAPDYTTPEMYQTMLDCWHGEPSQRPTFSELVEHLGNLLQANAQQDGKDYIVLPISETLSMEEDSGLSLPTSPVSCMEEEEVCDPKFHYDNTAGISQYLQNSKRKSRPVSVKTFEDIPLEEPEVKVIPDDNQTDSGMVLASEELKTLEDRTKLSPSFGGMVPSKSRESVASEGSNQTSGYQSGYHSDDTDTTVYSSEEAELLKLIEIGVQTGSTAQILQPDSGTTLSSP
For orientation: In TR-FRET formats the signal depends on donor and acceptor labels being close together.

Assay [2] deals with T3, KDR. Put plainly: KDR cellular assay (KDR receptor phosphorylation ELISA). The class given is cell-based. The note with it: KDR transfected 3T3 (embryonic mouse) cells, VEGF stimulated; read-out: IC50 inhibition of KDR phosphorylation. The arrangement: expressed in transfected cells; host or cells: 3T3 (embryonic mouse) cells. Here is the method: The ability of compounds to inhibit KDR receptor phosphorylation in cells was measured by ELISA following the protocol outlined below.
KDR transfected 3T3 (embryonic mouse) cells added to 96-well tissue culture plates at 20,000 cells/well.
Plates were covered and placed in a 37° C. humidified incubator with 5% CO2 overnight, to allow cells to adhere.
Coating solution was prepared: 500 l/vial PBS was added to 2 vials of anti-KDR antibody, then 1 ml solubilized anti-KDR antibody into 29.0 ml bicarbonate buffer. Coating solution was added to all wells at 150 µl/well (final amount anti-KDR=1 µg/well) and placed at 4° C. overnight.
Blocking solution (2.1 g dry milk+42 ml PBS=5% milk in PBS) was placed on a stir plate for 30 min.
Assay plates were washed twice with PBST, and 200 µl/well blocking solution was added to all wells. Assay plates were covered with plate sealers and placed in a 37° C. microplate chamber until just before cell lysate transfer.
Compound stocks were thawed or prepared in DMSO as 5 mM stocks.
Dilution medium (DM, 1% DMSO in DMEM) and compounds were diluted by half-log increments for concentration response analysis.
Conditioned media was dumped from the tissue culture plates, and plates were blotted dry.
Standard solution in DM, compound dilutions in DM, or DM (for high control, negative control, and reference wells) were added to the tissue culture plates, 25 µl/well. Each pair of tissue culture plates was prepared with the same compounds, solutions, and layout; and will be combined later; Tissue culture plates were covered and placed in the 37° C. microplate chamber for 20 min.
VEGF solution was prepared: 110 l VEGF stock+10.89 ml DM=100 ng/ml VEGF
VEGF solution or DM (for reference wells) was added to the tissue culture plates, 25 μl/well.
Tissue culture plates were covered and placed in the 37° C. microplate chamber for 10 min.
RIPA buffer was prepared (240 l NaVO3 stock+240 l PIC stock+24 l NaF stock+23.496 ml RIPA base) and added to the tissue culture plates, 50 µl/well.
Tissue culture plates were covered and placed on a Labline plate shaker for 10 min (speed about 5).
Assay plates were washed twice with PBST.
Cell lysates from matching wells of each pair of tissue culture plates were combined to =200 µl/well, and were pipetted up and down to mix. Cell lysates were transferred to the assay plates using the same layouts, 170 µl/well.
Assay plates were covered with plate sealers and placed on a Labline plate shaker for 2 hr (speed about 5).
Assay plates were washed 5 times with PBST.
Biotin antibody solution was prepared (16 l biotin antibody stock+32 ml PBST=2000× dilution) and added to the assay plates, 150 µl/well.
Assay plates were covered with plate sealers and placed on a Labline plate shaker for 90 min
Streptavidin-HRP solution was prepared (16 l streptavidin-HRP stock+32 ml PBST=2000× dilution) and added to the assay plates, 150 µl/well.
Assay plates were covered with plate sealers and placed on a Labline plate shaker for 60 min
Substrate was added to the assay plates, 100 µl/well.
As assay plates developed, the plates were each monitored on a Molecular Devices Spectramax set to 650 nm, until the signal in the high control wells was around 0.6 OD and the signal in the negative control wells was around 0.1-0.15 OD.
Stop solution was added to the assay plates, 100 µl/well.
The plates were read on a Molecular Devices Spectramax set to 450 nm.
Data was calculated by Assay Explorer, using same-plate high control wells as 0% and reference standard wells as 100% inhibition of KDR phosphorylation. IC50 values were calculated by non-linear regression analysis of the concentration response data.
Target sequence in this assay (P35968 20-1356): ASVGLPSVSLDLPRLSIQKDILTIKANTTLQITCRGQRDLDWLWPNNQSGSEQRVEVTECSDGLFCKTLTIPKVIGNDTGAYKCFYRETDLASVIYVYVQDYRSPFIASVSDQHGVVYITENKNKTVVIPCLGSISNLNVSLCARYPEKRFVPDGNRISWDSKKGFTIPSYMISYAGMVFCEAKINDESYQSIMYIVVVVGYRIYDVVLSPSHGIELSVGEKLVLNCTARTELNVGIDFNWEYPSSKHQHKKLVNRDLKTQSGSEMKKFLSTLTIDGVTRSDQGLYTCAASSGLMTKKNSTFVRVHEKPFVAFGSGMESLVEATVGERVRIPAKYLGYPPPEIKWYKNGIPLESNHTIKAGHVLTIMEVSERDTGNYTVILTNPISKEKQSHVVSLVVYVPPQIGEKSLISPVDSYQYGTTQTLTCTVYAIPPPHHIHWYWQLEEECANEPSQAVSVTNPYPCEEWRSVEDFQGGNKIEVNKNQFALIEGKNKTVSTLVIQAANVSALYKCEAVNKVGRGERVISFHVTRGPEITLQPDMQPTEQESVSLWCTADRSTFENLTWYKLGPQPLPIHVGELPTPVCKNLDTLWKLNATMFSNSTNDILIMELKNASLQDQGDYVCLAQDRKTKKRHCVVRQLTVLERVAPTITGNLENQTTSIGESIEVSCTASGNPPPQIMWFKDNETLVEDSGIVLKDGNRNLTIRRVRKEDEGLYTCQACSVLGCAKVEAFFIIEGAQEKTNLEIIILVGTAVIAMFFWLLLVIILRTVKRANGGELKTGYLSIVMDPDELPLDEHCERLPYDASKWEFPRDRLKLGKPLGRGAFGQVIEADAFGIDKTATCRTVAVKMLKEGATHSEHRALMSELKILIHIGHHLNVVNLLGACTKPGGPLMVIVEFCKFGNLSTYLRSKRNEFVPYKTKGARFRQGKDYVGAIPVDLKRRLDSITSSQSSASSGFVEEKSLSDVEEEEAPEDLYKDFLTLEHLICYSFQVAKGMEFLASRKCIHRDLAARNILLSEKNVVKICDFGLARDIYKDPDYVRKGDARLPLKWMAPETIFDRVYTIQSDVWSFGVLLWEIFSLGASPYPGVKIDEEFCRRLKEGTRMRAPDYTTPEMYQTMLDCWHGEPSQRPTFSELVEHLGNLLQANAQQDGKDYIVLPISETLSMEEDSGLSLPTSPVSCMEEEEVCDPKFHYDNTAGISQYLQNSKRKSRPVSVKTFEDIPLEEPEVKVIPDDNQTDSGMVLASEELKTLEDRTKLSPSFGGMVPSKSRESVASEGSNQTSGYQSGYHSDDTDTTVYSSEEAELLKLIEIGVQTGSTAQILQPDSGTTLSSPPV
A general note: ELISA stands for enzyme-linked immunosorbent assay.

As to `Cn1cc(Nc2ncc(Br)c(N[C@H]3[C@@H](C(N)=O)C[C@H]4C[C@@H]3C4(C)C)n2)cn1` [Example 182, (1R,2R,3S,5R)-2-({5-bromo-2-[(1-methyl-1H-pyrazol-4-yl)amino]pyrimidin-4-yl}amino)-6,6-dimethylbicyclo[3.1.1]heptane-3-carboxamide], the inhibition constant Ki on Aurora B, on Aurora A and at KDR [1] was less than 0.1 µM throughout. Further, on KDR [2], the IC50 fell in the range of 0.1 to 1 µM.

`Cc1nn(C)c(C)c1Nc1ncc(Cl)c(N[C@H]2[C@@H](C(N)=O)[C@@H]3C=C[C@H]2C3)n1` [Example 127, (1S,2S,3R,4R)-3-({5-chloro-2-[(1,3,5-trimethyl-1H-pyrazol-4-yl)amino]pyrimidin-4-yl}amino)bicyclo[2.2.1]hept-5-ene-2-carboxamide]: the inhibition constant (Ki) on Aurora B, at Aurora A and on KDR [1] was 0.1 to 1 µM in each case. The IC50 at KDR [2] was 0.1 to 1 µM.

As for `Cc1c(Nc2ncc(Cl)c(N[C@H]3[C@@H](C(N)=O)C[C@H]4C[C@@H]3C4(C)C)n2)cnn1C` [Example 184, (1R,2R,3S,5R)-2-({5-chloro-2-[(1,5-dimethyl-1H-pyrazol-4-yl)amino]pyrimidin-4-yl}amino)-6,6-dimethylbicyclo[3.1.1]heptane-3-carboxamide], the inhibition constant Ki on Aurora B, at Aurora A and at KDR [1] was less than 0.1 µM each time. Moreover, on KDR [2], the IC50 lay in the range of 0.1 to 1 µM.

For `CC1(C)[C@H]2C[C@H](C(N)=O)[C@H](Nc3nc(Nc4cnn(Cc5ccccc5)c4)ncc3Cl)[C@@H]1C2` [Example 187, (1R,2R,3S,5R)-2-({2-[(1-benzyl-1H-pyrazol-4-yl)amino]-5-chloropyrimidin-4-yl}amino)-6,6-dimethylbicyclo[3.1.1]heptane-3-carboxamide], the Ki on Aurora B, at Aurora A and at KDR [1] was less than 0.1 µM in each case. Besides, at KDR [2], the IC50 was 0.1 to 1 µM.

Consider `Cn1cc(Nc2ncc(Cl)c(N[C@@H]3CC=CC[C@@H]3C(N)=O)n2)cn1.Cn1cc(Nc2ncc(Cl)c(N[C@H]3CC=CC[C@H]3C(N)=O)n2)cn1` (mixture of isomers) [Example 146, (1S,6R)-6-({5-chloro-2-[(1-methyl-1H-pyrazol-4-yl)amino]pyrimidin-4-yl}amino)cyclohex-3-ene-1-carboxamide and (1R,6S)-6-({5-chloro-2-[(1-methyl-1H-pyrazol-4-yl)amino]pyrimidin-4-yl}amino)cyclohex-3-ene-1-carboxamide], for which the values for the inhibition constant Ki at Aurora B, on Aurora A and on KDR [1] were less than 0.1 µM, less than 0.1 µM and 0.1 to 1 µM, respectively. In addition, at KDR [2], the IC50 was 0.1 to 1 µM.

In the case of `CC1(C)[C@H]2C[C@H](C(N)=O)[C@H](Nc3nc(Nc4cnn(CCc5ccccc5)c4)ncc3Cl)[C@@H]1C2` [Example 188, (1R,2R,3S,5R)-2-[(5-chloro-2-{[1-(2-phenylethyl)-1H-pyrazol-4-yl]amino}pyrimidin-4-yl)amino]-6,6-dimethylbicyclo[3.1.1]heptane-3-carboxamide], the inhibition constant Ki on Aurora B, at Aurora A and at KDR [1] was less than 0.1 µM each time. In addition, the IC50 on KDR [2] lay within 0.1 to 1 µM.

As for `NC(=O)[C@@H]1[C@H](Nc2nc(Nc3cnn(CCO)c3)ncc2C(F)(F)F)[C@H]2C=C[C@@H]1C2.NC(=O)[C@H]1[C@@H](Nc2nc(Nc3cnn(CCO)c3)ncc2C(F)(F)F)[C@@H]2C=C[C@H]1C2` (mixture of isomers) [Example 29, (1S,2S,3R,4R)-3-{[2-{[1-(2-hydroxyethyl)-1H-pyrazol-4-yl]amino}-5-(trifluoromethyl)pyrimidin-4-yl]amino}bicyclo[2.2.1]hept-5-ene-2-carboxamide and (1R,2R,3S,4S)-3-{[2-{[1-(2-hydroxyethyl)-1H-pyrazol-4-yl]amino}-5-(trifluoromethyl)pyrimidin-4-yl]amino}bicyclo[2.2.1]hept-5-ene-2-carboxamide], the Ki on Aurora B is 0.1 to 1 µM; on Aurora A, less than 0.1 µM; on KDR [1], less than 0.1 µM. Moreover, the IC50 at KDR [2] is 0.1 to 1 µM.

Consider `Cn1cc(Nc2ncc(Cl)c(N[C@@H]3[C@H](C(N)=O)[C@H]4C=C[C@@H]3C4)n2)cn1.Cn1cc(Nc2ncc(Cl)c(N[C@H]3[C@@H](C(N)=O)[C@@H]4C=C[C@H]3C4)n2)cn1` (mixture of isomers) [Example 27, (1S,2S,3R,4R)-3-({5-chloro-2-[(1-methyl-1H-pyrazol-4-yl)amino]pyrimidin-4-yl}amino)bicyclo[2.2.1]hept-5-ene-2-carboxamide and (1R,2R,3S,4S)-3-({5-chloro-2-[(1-methyl-1H-pyrazol-4-yl)amino]pyrimidin-4-yl}amino)bicyclo[2.2.1]hept-5-ene-2-carboxamide], for which the Ki at Aurora B, on Aurora A and on KDR [1] was less than 0.1 µM each time. Besides, the half-inhibitory concentration (IC50) on KDR [2] is less than 0.1 µM.

On to `Cn1cc(Nc2ncc(C(F)(F)F)c(Nc3sccc3C(N)=O)n2)cn1` [Example 152, 2-({2-[(1-methyl-1H-pyrazol-4-yl)amino]-5-(trifluoromethyl)pyrimidin-4-yl}amino)thiophene-3-carboxamide], for which the Ki was less than 0.1 µM at Aurora B, less than 0.1 µM at Aurora A and 0.1 to 1 µM at KDR [1]. For the same molecule, at KDR [2], the IC50 lay in the range of 0.1 to 1 µM.

Turning to `CCn1cc(Nc2ncc(Br)c(N[C@H]3[C@@H](C(N)=O)C[C@H]4C[C@@H]3C4(C)C)n2)cn1` [Example 183, (1R,2R,3S,5R)-2-({5-bromo-2-[(1-ethyl-1H-pyrazol-4-yl)amino]pyrimidin-4-yl}amino)-6,6-dimethylbicyclo[3.1.1]heptane-3-carboxamide], the inhibition constant (Ki) on Aurora B, on Aurora A and on KDR [1] was less than 0.1 µM in each case. For the same molecule, at KDR [2], the half-inhibitory concentration (IC50) was in the range of 0.1 to 1 µM.

For the molecule `Cn1cc(Nc2ncc(Cl)c(Nc3ccccc3C(C)(C)O)n2)cn1` [Example 138, 2-[2-({5-chloro-2-[(1-methyl-1H-pyrazol-4-yl)amino]pyrimidin-4-yl}amino)phenyl]propan-2-ol], the Ki on Aurora B, at Aurora A and at KDR [1] was less than 0.1 µM each time. The half-inhibitory concentration (IC50) on KDR [2] is 0.1 to 1 µM.
